Source: patent US9951032B2, “Antibacterial compounds” (Janssen Sciences Ireland UC, priority 2012, dated 2018)
Values after ≈ are worked out from the molar mass of the structure shown. Like-named read-outs stand apart in the source and are kept apart here.

Assays:
[1] = tested on: Mycobacterium tuberculosis (strain H37RV); assay: MIC90 determination for testing compounds against M. tuberculosis; format: cell-based
[2] = tested on: Mycobacterium tuberculosis (strain H37RV); assay: Time kill assay (kill kinetics), broth dilution method; format: cell-based

In the case of `O=C(Nc1nc2cc(Cl)ccc2o1)NC12CC3CC(CC(C3)C1)C2`, the melting point is reported as greater than 250 °C.

With `O=C(Nc1nc2c(F)cc(F)cc2s1)NC12CC3CC(CC(C3)C1)C2` [Compound 1] the MIC90 ([1]; Mycobacterium tuberculosis, H37RV, LV12076, 10% human serum) was 1 µg/mL (≈ 2.75 µM), the MIC90 ([1]; Mycobacterium tuberculosis, H37RV, LV12086, 20% human serum) was 1 µg/mL (≈ 2.75 µM) and the MIC90 ([1]; Mycobacterium tuberculosis, H37RV, LV12086, no human serum) was 0.25 µg/mL (≈ 0.688 µM). The MIC90 ([1]; Mycobacterium tuberculosis, H37RV, LV12076, no human serum) was 0.5 µg/mL (≈ 1.38 µM), the “log CFU/ml” value ([2]; 0.5 μg/ml, day 0) was 6.35 log CFU/ml and the “log CFU/ml” value ([2]; 0.5 μg/ml, day 1) was 5.57 log CFU/ml. For the same compound, the “log CFU/ml” value ([2]; 0.5 μg/ml, day 4) was 2.00 log CFU/ml, the “log CFU/ml” value ([2]; 0.5 μg/ml, day 7) was 2.00 log CFU/ml and the “log CFU/ml” value ([2]; 0.5 μg/ml, day 14) was 2.00 log CFU/ml. For the same compound, the “log CFU/ml” value ([2]; 0.5 μg/ml, day 21) was 2.00 log CFU/ml, the “log CFU/ml” value ([2]; 5 μg/ml, day 0) was 6.35 log CFU/ml and the “log CFU/ml” value ([2]; 5 μg/ml, day 1) was 6.15 log CFU/ml. For the same compound, the “log CFU/ml” value ([2]; 5 μg/ml, day 4) was 3.08 log CFU/ml, the “log CFU/ml” value ([2]; 5 μg/ml, day 7) was 2.00 log CFU/ml and the “log CFU/ml” value ([2]; 5 μg/ml, day 14) was 2.00 log CFU/ml. The “log CFU/ml” value ([2]; 5 μg/ml, day 21) was 2.00 log CFU/ml and the melting point was greater than 260 °C.

Work on `NNC(=O)c1ccncc1` [Isoniazid, reference compound] yielded an MIC90 ([1]; LV12076, 10% human serum) of 0.03 µg/mL (≈ 0.219 µM), an MIC90 ([1]; LV12086, 20% human serum) of 0.03 µg/mL (≈ 0.219 µM) and an MIC90 ([1]; LV12086, no human serum) of 0.03 µg/mL (≈ 0.219 µM). For the same compound, the MIC90 ([1]; Mycobacterium tuberculosis, H37RV, LV12076, no human serum, read-out: MIC90) was 0.03 µg/mL (≈ 0.219 µM), the “log CFU/ml” value ([2]; 1 μg/ml, day 0) was 6.35 log CFU/ml and the “log CFU/ml” value ([2]; 1 μg/ml, day 1) was 3.57 log CFU/ml. For the same compound, the “log CFU/ml” value ([2]; 1 μg/ml, day 4) was 2.00 log CFU/ml, the “log CFU/ml” value ([2]; 1 μg/ml, day 7) was 2.00 log CFU/ml and the “log CFU/ml” value ([2]; 1 μg/ml, day 14) was 2.00 log CFU/ml. The “log CFU/ml” value ([2]; 1 μg/ml, day 21) was 2.00 log CFU/ml.
